From patent US6737383B1, “Herbicidal oxadiazolidines” (priority 1999, dated 2004)

Columns and labels:
velvetleaf = assay: Test B pre/postemergence velvetleaf; format: in vivo, Abutilon theophrasti; details: for Plant response rating, Velvetleaf: scale of 0 to 10 where 0 is no effect and 10 is complete control
How it was run: (§1)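 Herbicidal effect was estimated by eye on a ten-point control scale after plants spent twelve to sixteen days in a greenhouse following soil or foliar treatment. Foliar sprays targeted plants at one to four leaves; all doses were formulated in a non-phytotoxic solvent with surfactant.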

pigweed = assay: Test B pre/postemergence pigweed; format: in vivo, Amaranthus retroflexus; details: for Plant response rating, Redroot pigweed: scale of 0 to 10 where 0 is no effect and 10 is complete control
How it was run: as §1

blackgrass = assay: Test B pre/postemergence blackgrass; format: in vivo, Alopecurus myosuroides
How it was run: as §1

sugar beet = assay: Test B pre/postemergence sugar beet; format: in vivo, Beta vulgaris; details: for Plant response rating, Sugarbeets: scale of 0 to 10 where 0 is no effect and 10 is complete control
How it was run: as §1

wild oat = assay: Test B pre/postemergence wild oat; format: in vivo, Avena fatua; details: for Plant response rating, Wild oats: scale of 0 to 10 where 0 is no effect and 10 is complete control
How it was run: as §1

cocklebur = assay: Test B pre/postemergence cocklebur; format: in vivo, Xanthium strumarium
How it was run: as §1

corn = assay: Test B pre/postemergence corn; format: in vivo, Zea mays
How it was run: as §1

crabgrass = assay: Test B pre/postemergence crabgrass; format: in vivo, Digitaria sanguinalis
How it was run: as §1

bamyardgrass = assay: Test B flood test barnyardgrass; format: in vivo, Echinochloa crus-galli
How it was run: (§2)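 Each value is a visual injury score relative to controls, with 10 meaning complete control and 0 no effect. Evaluation took place twelve to sixteen days after the 2-leaf-stage plants were treated and kept in the greenhouse.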

duck salad = assay: Test B flood test duck salad; format: in vivo, Heteranthera limosa
How it was run: as §2

purple nutsedge = assay: Test B pre/postemergence purple nutsedge; format: in vivo, Cyperus rotundus; details: for Plant response rating, Nutsedge: scale of 0 to 10 where 0 is no effect and 10 is complete control
How it was run: as §1

morningglory = assay: Test B pre/postemergence morningglory; format: in vivo, Ipomoea hederacea; details: for Plant response rating, Morningglory: scale of 0 to 10 where 0 is no effect and 10 is complete control
How it was run: as §1

rice = assay: Test B flood test rice; format: in vivo, Oryza sativa
How it was run: as §2

wheat = assay: Test B pre/postemergence wheat; format: in vivo, Triticum aestivum; details: for Plant response rating, Wheat: scale of 0 to 10 where 0 is no effect and 10 is complete control
How it was run: as §1

rape = assay: Test B pre/postemergence rape; format: in vivo, Brassica napus; details: for Plant response rating, Rape: scale of 0 to 10 where 0 is no effect and 10 is complete control
How it was run: as §1

smallflower flatsedge = assay: Test B flood test smallflower flatsedge; format: in vivo, Cyperus difformis
How it was run: as §2

[1] = Postemergence, Rate 250 g/ha, scale 0 to 10
[2] = Preemergence, Rate 250 g/ha, scale 0 to 10, 0 is no effect, 10 is complete control
[3] = Preemergence, Rate 500 g/ha, scale 0 to 10, 0 is no effect, 10 is complete control
[4] = Rate 62 g/ha, Postemergence, scale 0 to 10 (0 no effect, 10 complete control)
[5] = Rate 125 g/ha, Postemergence, scale 0 to 10, 0 is no effect, 10 is complete control
[6] = Postemergence, Rate 500 g/ha, scale of 0 to 10 where 0 is no effect and 10 is complete control
[7] = Preemergence, Rate 62 g/ha, scale of 0 to 10 where 0 is no effect and 10 is complete control
[8] = Preemergence, Rate 125 g/ha, scale of 0 to 10 where 0 is no effect and 10 is complete control
[9] = Rate 62 g/ha, flood test species, Pre-emergence, visual evaluation after twelve to sixteen days
[10] = Rate 125 g/ha, under heading Pre-emergence, flood test species, visual evaluation after twelve to sixteen days
[11] = Rate 250 g/ha, Pre-emergence (flood test species), scale 0 to 10, 0 is no effect, 10 is complete control
[12] = Rate 500 g/ha, Pre-emergence, flood test species, scale 0 to 10 (0 no effect, 10 complete control)

SMILES: CC(C)N(C(=O)n1oc(=O)n(C(CF)CF)c1=O)c1ccc(Cl)cc1 [Compound 468]
- Velvetleaf plant response rating (velvetleaf; [1]): 2
- Plant response rating, Velvetleaf (velvetleaf; Preemergence, Rate 62 g/ha): 0
- Plant response rating, Velvetleaf (velvetleaf; Preemergence, Rate 125 g/ha): 0
- Velvetleaf plant response rating (velvetleaf; [2]): 1
- Velvetleaf plant response rating (velvetleaf; [3]): 4
- Velvetleaf plant response rating (velvetleaf; [4]): 0
- Velvetleaf plant response rating (velvetleaf; [5]): 0
- Redroot pigweed plant response rating (pigweed; [1]): 4
- Plant response rating, Redroot pigweed (pigweed; Preemergence, Rate 62 g/ha): 0
- Plant response rating, Redroot pigweed (pigweed; Preemergence, Rate 125 g/ha): 4
- Redroot pigweed plant response rating (pigweed; [2]): 8
- Redroot pigweed plant response rating (pigweed; [3]): 10
- Redroot pigweed plant response rating (pigweed; [4]): 0
- Redroot pigweed plant response rating (pigweed; [5]): 2
- Blackgrass plant response rating (blackgrass; [1]): 7
- Blackgrass plant response rating (blackgrass; [6]): 8
- Plant response rating, Blackgrass (blackgrass; [7]): 3
- Plant response rating, Blackgrass (blackgrass; [8]): 4
- Blackgrass plant response rating (blackgrass; [2]): 5
- Blackgrass plant response rating (blackgrass; [3]): 9
- Blackgrass plant response rating (blackgrass; [4]): 0
- Blackgrass plant response rating (blackgrass; [5]): 5
- Sugarbeets plant response rating (sugar beet; [1]): 0
- Plant response rating, Sugarbeets (sugar beet; Preemergence, Rate 62 g/ha): 0
- Plant response rating, Sugarbeets (sugar beet; Preemergence, Rate 125 g/ha): 0
- Sugarbeets plant response rating (sugar beet; [2]): 2
- Sugarbeets plant response rating (sugar beet; [3]): 6
- Sugarbeets plant response rating (sugar beet; [4]): 0
- Sugarbeets plant response rating (sugar beet; [5]): 0
- Wild oats plant response rating (wild oat; [1]): 0
- Plant response rating, Wild oats (wild oat; Preemergence, Rate 62 g/ha): 0
- Plant response rating, Wild oats (wild oat; Preemergence, Rate 125 g/ha): 0
- Wild oats plant response rating (wild oat; [2]): 3
- Wild oats plant response rating (wild oat; [3]): 7
- Wild oats plant response rating (wild oat; [4]): 0
- Wild oats plant response rating (wild oat; [5]): 0
- Cocklebur plant response rating (cocklebur; [1]): 2
- Cocklebur plant response rating (cocklebur; [6]): 4
- Plant response rating, Cocklebur (cocklebur; [7]): 0
- Plant response rating, Cocklebur (cocklebur; [8]): 0
- Cocklebur plant response rating (cocklebur; [2]): 0
- Cocklebur plant response rating (cocklebur; [3]): 0
- Cocklebur plant response rating (cocklebur; [4]): 0
- Cocklebur plant response rating (cocklebur; [5]): 0
- Corn plant response rating (corn; [1]): 0
- Corn plant response rating (corn; [6]): 0
- Plant response rating, Corn (corn; [7]): 0
- Plant response rating, Corn (corn; [8]): 0
- Corn plant response rating (corn; [2]): 0
- Corn plant response rating (corn; [3]): 2
- Corn plant response rating (corn; [4]): 0
- Corn plant response rating (corn; [5]): 0
- Crabgrass plant response rating (crabgrass; [1]): 9
- Crabgrass plant response rating (crabgrass; [6]): 9
- Plant response rating, Crabgrass (crabgrass; [7]): 9
- Plant response rating, Crabgrass (crabgrass; [8]): 9
- Crabgrass plant response rating (crabgrass; [2]): 9
- Crabgrass plant response rating (crabgrass; [3]): 9
- Crabgrass plant response rating (crabgrass; [4]): 3
- Plant response rating, Barnyardgrass (0 to 10 scale, 0 is no effect, 10 is complete control) (bamyardgrass; [9]): 0
- Barnyardgrass plant response rating (0 to 10 scale, 0 is no effect, 10 is complete control) (bamyardgrass; [10]): 0
- Barnyardgrass plant response rating (bamyardgrass; [11]): 0
- Barnyardgrass plant response rating (bamyardgrass; [12]): 0
- Plant response rating, Ducksalad (0 to 10 scale, 0 is no effect, 10 is complete control) (duck salad; [9]): 0
- Ducksalad plant response rating (0 to 10 scale, 0 is no effect, 10 is complete control) (duck salad; [10]): 0
- Ducksalad plant response rating (duck salad; [11]): 0
- Ducksalad plant response rating (duck salad; [12]): 0
- Nutsedge plant response rating (purple nutsedge; [1]): 0
- Plant response rating, Nutsedge (purple nutsedge; Preemergence, Rate 62 g/ha): 0
- Plant response rating, Nutsedge (purple nutsedge; Preemergence, Rate 125 g/ha): 0
- Nutsedge plant response rating (purple nutsedge; [2]): 0
- Nutsedge plant response rating (purple nutsedge; [3]): 0
- Nutsedge plant response rating (purple nutsedge; [4]): 0
- Nutsedge plant response rating (purple nutsedge; [5]): 0
- Morningglory plant response rating (morningglory; [1]): 4
- Plant response rating, Morningglory (morningglory; Preemergence, Rate 62 g/ha): 0
- Plant response rating, Morningglory (morningglory; Preemergence, Rate 125 g/ha): 0
- Morningglory plant response rating (morningglory; [2]): 0
- Morningglory plant response rating (morningglory; [3]): 2
- Morningglory plant response rating (morningglory; [4]): 2
- Morningglory plant response rating (morningglory; [5]): 3
- Plant response rating, Rice (0 to 10 scale, 0 is no effect, 10 is complete control) (rice; [9]): 0
- Rice plant response rating (0 to 10 scale, 0 is no effect, 10 is complete control) (rice; [10]): 0
- Rice plant response rating (rice; [11]): 0
- Rice plant response rating (rice; [12]): 0
- Wheat plant response rating (wheat; [1]): 0
- Plant response rating, Wheat (wheat; Preemergence, Rate 62 g/ha): 0
- Plant response rating, Wheat (wheat; Preemergence, Rate 125 g/ha): 0
- Wheat plant response rating (wheat; [2]): 0
- Wheat plant response rating (wheat; [3]): 6
- Wheat plant response rating (wheat; [4]): 0
- Wheat plant response rating (wheat; [5]): 0
- Rape plant response rating (rape; [1]): 0
- Plant response rating, Rape (rape; Preemergence, Rate 62 g/ha): 0
- Plant response rating, Rape (rape; Preemergence, Rate 125 g/ha): 0
- Rape plant response rating (rape; [2]): 3
- Rape plant response rating (rape; [3]): 6
- Rape plant response rating (rape; [4]): 0
- Rape plant response rating (rape; [5]): 0
- Plant response rating, S. Flatsedge (0 to 10 scale, 0 is no effect, 10 is complete control) (smallflower flatsedge; [9]): 0
- S. Flatsedge plant response rating (0 to 10 scale, 0 is no effect, 10 is complete control) (smallflower flatsedge; [10]): 0
- S. Flatsedge plant response rating (smallflower flatsedge; [11]): 0
- S. Flatsedge plant response rating (smallflower flatsedge; [12]): 0
